Test results published in patent US9738634B2, “Heterocyclic amide compound and herbicide” (SYNGENTA PARTICIPATIONS AG, priority 2013, dated 2017).

Key:
Assay type in all cases: in vivo
[1] = system: black-grass; assay: Test Example 3: weedkilling efficacy through soil treatment; H: black-grass; details: soil treatment, treatment dosage 315 g/ha
From the text: (§1) Weedkilling Efficacy Test Through Soil Treatment
(§2) Sterilized diluvial soil was introduced into 21 cm long, 13 cm wide, 7 cm deep plastic boxes, and seeds of crabgrass, green foxtail, barnyard grass, wild oat, black-grass, Italian ryegrass, common wind-grass, Indian mallow, redroot pigweed, fig-leafed goosefoot, chickweed, catchweed, birds-eye speedwell, corn, soybean, rice, wheat, beet and rapeseed were each spot-sown, and covered with about 1.5 cm of soil. Next, emulsions of compounds of the present invention prepared according to compounding example 2 were diluted with water to give the specified dosages, and applied uniformly onto the soil surface with a small sprayer. The plants were grown by placing the plastic boxes in a greenhouse at 25 to 30° C., and 3 weeks after the pesticide treatment the effect on each type of plant was investigated on the basis of the assessment criteria of test example 1.
(§3) A: barnyard grass, B: bulrush, C: oval-leafed pondweed, D: crabgrass, E: green foxtail, F: barnyard grass, G: wild oat, H: black-grass, I: Italian ryegrass, J: common wind-grass, K: Indian mallow, L: redroot pigweed, M: fig-leafed goosefoot, N: chickweed, O: catchweed, p: birds-eye speedwell, a: transplanted rice, b: directly sown rice, c: corn, d: soybean, e: wheat, f: beet, g: rapeseed
(§4) Further, pesticide dosage (g/ha) indicates the concentration regulated such that treatment was with only the stated number of grams (g), when calculated per hectare (ha).

[2] = system: Italian ryegrass; assay: Test Example 3: weedkilling efficacy through soil treatment; I: Italian ryegrass; details: soil treatment, treatment dosage 315 g/ha
From the text: as §1, §2, §3, §4

[3] = system: soybean; assay: Test Example 3: soil treatment, effect on crop; d: soybean; details: soil treatment, treatment dosage 315 g/ha
From the text: as §1, §2, §3, §4

[4] = system: oval-leafed pondweed; assay: Test Example 1: weedkilling efficacy, preemergent weed treatment in the submerged state; C: oval-leafed pondweed; details: treatment dosage 252 g/ha
In short: (§5)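 Alluvial soil in Wagner pots flooded to 4 cm; barnyard grass, bulrush and oval-leafed pondweed seeds sown, then 2.5-leaf rice seedlings transplanted. Same day, emulsified compound diluted in water to set g/ha dosages and applied to water surface; greenhouse 25–30 °C, effect scored by criteria after 3 weeks.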

[5] = system: Indian mallow; assay: Test Example 3: weedkilling efficacy through soil treatment; K: Indian mallow; details: soil treatment, treatment dosage 315 g/ha
From the text: as §1, §2, §3, §4

[6] = system: wheat; assay: Test Example 3: soil treatment, effect on crop; e: wheat; details: soil treatment, treatment dosage 315 g/ha
From the text: as §1, §2, §3, §4

[7] = system: fig-leafed goosefoot; assay: Test Example 3: weedkilling efficacy through soil treatment; M: fig-leafed goosefoot; details: soil treatment, treatment dosage 315 g/ha
From the text: as §1, §2, §3, §4

[8] = system: crabgrass; assay: Test Example 3: weedkilling efficacy through soil treatment; D: crabgrass; details: soil treatment, treatment dosage 315 g/ha
From the text: as §1, §2, §3, §4

[9] = system: bulrush; assay: Test Example 1: weedkilling efficacy, preemergent weed treatment in the submerged state; B: bulrush; details: treatment dosage 252 g/ha
In short: as §5

[10] = system: birds-eye speedwell; assay: Test Example 3: weedkilling efficacy through soil treatment; p: birds-eye speedwell; details: soil treatment, treatment dosage 315 g/ha
From the text: as §1, §2, §3, §4

[11] = system: barnyard grass; assay: Test Example 2: weedkilling efficacy, growth period weed treatment in the submerged state; A: barnyard grass; details: treatment dosage 252 g/ha
In short: (§6)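 First, alluvial soil in pots is flooded to 4 cm and mixed seed is sown. Next, plants grow in a greenhouse at 25 to 30° C until the 1-2 leaf stage. Then diluted emulsion is applied onto the water surface at the given g/ha rate, and injury is assessed after 3 weeks.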

[12] = system: green foxtail; assay: Test Example 3: weedkilling efficacy through soil treatment; E: green foxtail; details: soil treatment, treatment dosage 315 g/ha
From the text: as §1, §2, §3, §4

[13] = system: beet; assay: Test Example 3: soil treatment, effect on crop; f: beet; details: soil treatment, treatment dosage 315 g/ha
From the text: as §1, §2, §3, §4

[14] = system: redroot pigweed; assay: Test Example 3: weedkilling efficacy through soil treatment; L: redroot pigweed; details: soil treatment, treatment dosage 315 g/ha
From the text: as §1, §2, §3, §4

[15] = system: barnyard grass; assay: Test Example 1: weedkilling efficacy, preemergent weed treatment in the submerged state; A: barnyard grass; details: treatment dosage 252 g/ha
In short: as §5

[16] = system: directly sown rice; assay: Test Example 3: soil treatment, effect on crop; b: directly sown rice; details: soil treatment, treatment dosage 315 g/ha
From the text: as §1, §2, §3, §4

[17] = system: oval-leafed pondweed; assay: Test Example 2: weedkilling efficacy, growth period weed treatment in the submerged state; C: oval-leafed pondweed; details: treatment dosage 252 g/ha
In short: as §6

[18] = system: wild oat; assay: Test Example 3: weedkilling efficacy through soil treatment; G: wild oat; details: soil treatment, treatment dosage 315 g/ha
From the text: as §1, §2, §3, §4

[19] = system: corn; assay: Test Example 3: soil treatment, effect on crop; c: corn; details: soil treatment, treatment dosage 315 g/ha
From the text: as §1, §2, §3, §4

[20] = system: chickweed; assay: Test Example 3: weedkilling efficacy through soil treatment; N: chickweed; details: soil treatment, treatment dosage 315 g/ha
From the text: as §1, §2, §3, §4

[21] = system: bulrush; assay: Test Example 2: weedkilling efficacy, growth period weed treatment in the submerged state; B: bulrush; details: treatment dosage 252 g/ha
In short: as §6

[22] = system: transplanted rice; assay: Test Example 1: preemergent weed treatment in the submerged state, effect on crop; a: transplanted rice; details: treatment dosage 252 g/ha
In short: as §5

| Structure (SMILES) | H: black-grass, weedkilling efficacy grade [1] | I: Italian ryegrass, weedkilling efficacy grade [2] | d: soybean, effect on crop grade [3] | C: oval-leafed pondweed, weed kill grade [4] | K: Indian mallow, weedkilling efficacy grade [5] | e: wheat, effect on crop grade [6] | M: fig-leafed goosefoot, weedkilling efficacy grade [7] | D: crabgrass, weedkilling efficacy grade [8] | B: bulrush, weed kill grade [9] | A (barnyard grass) weedkilling efficacy grade [11] | E: green foxtail, weedkilling efficacy grade [12] | f: beet, effect on crop grade [13] | L: redroot pigweed, weedkilling efficacy grade [14] | A: barnyard grass, weed kill grade [15] | b: directly sown rice, effect on crop grade [16] | C (oval-leafed pondweed) weedkilling efficacy grade [17] | G: wild oat, weedkilling efficacy grade [18] | c: corn, effect on crop grade [19] | N: chickweed, weedkilling efficacy grade [20] | B (bulrush) weedkilling efficacy grade [21] | other results |
| --- | --- | --- | --- | --- | --- | --- | --- | --- | --- | --- | --- | --- | --- | --- | --- | --- | --- | --- | --- | --- | --- |
| Cc1csc(NC(=O)C(C)(C)N2COCN(c3ccccc3)C2=O)n1 [A-1-05] | 5 (weed kill ratio 90% or more, (practically complete withering)) | 5 (weed kill ratio 90% or more, (practically complete withering)) | 0 (weed kill ratio 5% or less (practically no effect)) | 5 (weed kill ratio 90% or more, (practically complete withering)) | 4 (weed kill ratio 70% or more, less than 90%) | 0 (weed kill ratio 5% or less (practically no effect)) | 3 (weed kill ratio 40% or more, less than 70%) | 5 (weed kill ratio 90% or more, (practically complete withering)) | 5 (weed kill ratio 90% or more, (practically complete withering)) | 3 (weed kill ratio 40% or more, less than 70%) | 5 (weed kill ratio 90% or more, (practically complete withering)) | 3 (weed kill ratio 40% or more, less than 70%) | 5 (weed kill ratio 90% or more, (practically complete withering)) | 5 (weed kill ratio 90% or more, (practically complete withering)) | 5 (weed kill ratio 90% or more, (practically complete withering)) | 3 (weed kill ratio 40% or more, less than 70%) | 4 (weed kill ratio 70% or more, less than 90%) | 1 (weed kill ratio 5% or more, less than 20%) | 4 (weed kill ratio 70% or more, less than 90%) | 5 (weed kill ratio 90% or more, (practically complete withering)) | P: birds-eye speedwell, weedkilling efficacy grade [10]: 5 (weed kill ratio 90% or more, (practically complete withering)); a: transplanted rice, effect on crop grade [22]: 0 (weed kill ratio 5% or less (practically no effect)) |
| CC(C)(C(=O)Nc1cc(Cl)cc(Cl)n1)N1COCN(c2ccccc2)C1=O [A-2-17, N-(4,6-dichloropyridin-2-yl)-2-methyl-2-(4-oxo-5-phenyl-1,3,5-oxadiazinan-3-yl) propionamide] | 5 (weed kill ratio 90% or more, (practically complete withering)) | 5 (weed kill ratio 90% or more, (practically complete withering)) | 5 (weed kill ratio 90% or more, (practically complete withering)) |  | 5 (weed kill ratio 90% or more, (practically complete withering)) | 4 (weed kill ratio 70% or more, less than 90%) | 5 (weed kill ratio 90% or more, (practically complete withering)) | 5 (weed kill ratio 90% or more, (practically complete withering)) |  |  | 5 (weed kill ratio 90% or more, (practically complete withering)) | 5 (weed kill ratio 90% or more, (practically complete withering)) | 5 (weed kill ratio 90% or more, (practically complete withering)) |  | 5 (weed kill ratio 90% or more, (practically complete withering)) |  | 5 (weed kill ratio 90% or more, (practically complete withering)) | 4 (weed kill ratio 70% or more, less than 90%) | 5 (weed kill ratio 90% or more, (practically complete withering)) |  | P: birds-eye speedwell, weedkilling efficacy grade [10]: 5 (weed kill ratio 90% or more, (practically complete withering)) |
| CC(C)(C(=O)Nc1cc(C(F)(F)F)cc(Cl)n1)N1COCN(c2ccccc2)C1=O [A-2-28] | 5 (weed kill ratio 90% or more, (practically complete withering)) | 5 (weed kill ratio 90% or more, (practically complete withering)) | 3 (weed kill ratio 40% or more, less than 70%) | 5 (weed kill ratio 90% or more, (practically complete withering)) | 4 (weed kill ratio 70% or more, less than 90%) | 1 (weed kill ratio 5% or more, less than 20%) | 5 (weed kill ratio 90% or more, (practically complete withering)) | 5 (weed kill ratio 90% or more, (practically complete withering)) | 5 (weed kill ratio 90% or more, (practically complete withering)) | 5 (weed kill ratio 90% or more, (practically complete withering)) | 5 (weed kill ratio 90% or more, (practically complete withering)) | 5 (weed kill ratio 90% or more, (practically complete withering)) | 4 (weed kill ratio 70% or more, less than 90%) | 5 (weed kill ratio 90% or more, (practically complete withering)) | 5 (weed kill ratio 90% or more, (practically complete withering)) | 5 (weed kill ratio 90% or more, (practically complete withering)) | 5 (weed kill ratio 90% or more, (practically complete withering)) | 1 (weed kill ratio 5% or more, less than 20%) | 5 (weed kill ratio 90% or more, (practically complete withering)) | 5 (weed kill ratio 90% or more, (practically complete withering)) | a: transplanted rice, effect on crop grade [22]: 2 (weed kill ratio 20% or more, less than 40%) |
| Cc1cccc(NC(=O)C(C)(C)N2COCN(c3ccccc3)C2=O)n1 [A-2-38] | 5 (weed kill ratio 90% or more, (practically complete withering)) | 5 (weed kill ratio 90% or more, (practically complete withering)) | 2 (weed kill ratio 20% or more, less than 40%) | 4 (weed kill ratio 70% or more, less than 90%) | 2 (weed kill ratio 20% or more, less than 40%) | 0 (weed kill ratio 5% or less (practically no effect)) | 4 (weed kill ratio 70% or more, less than 90%) | 5 (weed kill ratio 90% or more, (practically complete withering)) | 5 (weed kill ratio 90% or more, (practically complete withering)) | 3 (weed kill ratio 40% or more, less than 70%) | 5 (weed kill ratio 90% or more, (practically complete withering)) | 4 (weed kill ratio 70% or more, less than 90%) | 5 (weed kill ratio 90% or more, (practically complete withering)) | 5 (weed kill ratio 90% or more, (practically complete withering)) | 5 (weed kill ratio 90% or more, (practically complete withering)) | 3 (weed kill ratio 40% or more, less than 70%) | 5 (weed kill ratio 90% or more, (practically complete withering)) | 2 (weed kill ratio 20% or more, less than 40%) | 4 (weed kill ratio 70% or more, less than 90%) | 5 (weed kill ratio 90% or more, (practically complete withering)) | a: transplanted rice, effect on crop grade [22]: 0 (weed kill ratio 5% or less (practically no effect)) |
